System: Aβ40 production and/or release from SM-4 cells
Assay: Aβ40 ELISA of culture media from SM-4 cells
Assay type: cell-based
Conditions: 10-500 μM, 16 hrs
Description: Cell Lines and Pharmacological Treatments. 293 EBNA cells (InVitrogen, Carlsbad, Calif.) stably transfected with Swedish mutant β-Amyloid Precursor Protein -695 (SM4 cells) were routinely maintained in DMEM supplemented with sodium pyruvate (1 mM) and 10% fetal bovine serum. Cells were seeded into poly-D-Lysine (SIGMA) coated 6-well plates at a density of 5-7×10^5 cells per well. Subsequently, the cells were rinsed in 1 ml of PBS and treated with 10-500 μM of pirinixic acid in serum-free/phenol red-free DMEM for 16 hours. Aβ Detection and Standardization. After the pharmacological treatment, the exposure media was collected and supplemented with 10% sample treatment buffer (40 mM sodium phosphate (pH 7.4), 40 mM triethanolamine, 0.1% Triton X-100, 200 mM NaCl, 2 mM EGTA, 0.1% Sodium azide), and assayed for either Aβ40 or Aβ42 by a calorimetric ELISA as per the manufacturer's protocol (Biosource International Inc, California). The cells were lysed in 0.1% Triton X-100 in PBS supplemented with 5 μM propridium iodide (Molecular Probes, Eugene, Oreg.) and incubated at 37° C. for 30 minutes prior to measuring fluorescence. Aβ40 and Aβ42 were standardized against propridium iodide fluorescence as a measure of total cell number. 293 EBNA cells (InVitrogen, Carlsbad, Calif.) stably transfected with Swedish mutant β-Amyloid Precursor Protein -695 (SM4 cells) were routinely maintained in DMEM supplemented with sodium pyruvate (1 mM) and 10% fetal bovine serum. […] The cells were lysed in 0.1% Triton X-100 in PBS supplemented with 5 μM propridium iodide (Molecular Probes, Eugene, Oreg.) and incubated at 37° C. for 30 minutes prior to measuring fluorescence. Aβ40 and Aβ42 were standardized against propridium iodide fluorescence as a measure of total cell number. […] The cells were lysed in 0.1% Triton X-100 in PBS supplemented with 5 μM propridium iodide (Molecular Probes, Eugene, Oreg.) and incubated at 37° C. for 30 minutes prior to measuring fluorescence. Aβ40 and Aβ42 were standardized against propridium iodide fluorescence as a measure of total cell number.

## Cc1cccc(Nc2cc(Cl)nc(SCC(=O)O)n2)c1C [pirinixic acid]
  change in Aβ40 production and/or release: no significant change

Reference: US20030191144A1, “Compounds, compositions and methods for modulating beta-amyloid production” (Active Pass Pharmaceuticals, Inc., priority 2001, published 2003)
